Source: publication PMC11012289, “The Discovery of New Inhibitors of Insulin-Regulated Aminopeptidase by a High-Throughput Screening of 400,000 Drug-like Compounds” (International Journal of Molecular Sciences, 2024)
pIC50: −log10 of the molar value.

Tests used:
IRAP [1] = biological target: T1, IRAP (Homo sapiens, UniProt Q9UIQ6); assay: Primary fluorescence IRAP assay (L-Leucine-7-amido-4-methylcoumarin cleavage); format: biochemical; conditions: for pIC50: read-out: Fluorescence IC50; for LipE: calculated from (pIC50Fluorescence − LogD)
T1 construct: The screen was performed with the soluble truncated IRAP enzyme; made in house
Text: The primary biochemical assay was developed to measure the enzymatic activity of IRAP.
To ensure biochemically sound, optimal, robust, and affordable assay conditions for large-scale screening, several factors need to be considered. […] For both primary fluorescence and orthogonal absorbance assays, non-binding 1536-well assay plates were used, and 0.05% BSA was included in the assay buffer to minimize the issues associated with protein sticking to plastics. The substrate Km values were determined in two separate experiments using two different batches of IRAP protein. For this, the IRAP progress curve was monitored every 5 min for 2 h using an Envision multimode plate reader (PerkinElmer, Waltham, MA, USA).
First, 10 nL of test compounds (4 mM) or 100% DMSO was dispensed into the 1536-well assay plates using an Echo acoustic liquid handler (Beckman Coulter, Brea, CA, USA). Then, 2 μL of protein working solution (5 × 10^−4 mg/mL) was dispensed to the negative control (min effect) and compound wells (final well concentration 2.5 × 10^−4 mg/mL) using a Certus Flex liquid dispenser (Fritz Gyger AG, Thun, Switzerland) and 2 μL assay buffer to the positive control wells (max effect) using a FLEXdrop (PerkinElmer, Waltham, MA, USA).
Figure S9. Reference compounds in Fluorescence IRAP assay with different end volumes in 1536-well format.
mg/ml) and 2 or 4 µL L -Leucine-7-amido-4-methylcoumarin (f.a.c.
Plates were measured on the Envision every 10 minutes for 140 minutes (data
shown up to 2 hours). %Effect was calculated using no protein as MAX effect (assay buffer was added instead of IRAP).

IRAP [2] = biological target: T1, IRAP; assay: Thermal shift (TSA) IRAP assay; format: binding; conditions: screening hits at 30 µM, 1% DMSO
Text: The Thermal shift assay (TSA) is a biophysical technique measuring protein thermal stability. The assay relies on a fluorescent dye that is quenched in an aqueous environment but fluoresces when de-solvated in non-polar environments, such as the hydrophobic pockets of proteins. The target protein is mixed with the dye and heated gradually until it becomes completely denatured; as it unfolds or melts, the dye binds to newly exposed hydrophobic regions of the protein, resulting in a significant increase in fluorescence emission detected by a PCR system. The melting temperature (Tm) is calculated from the protein melt curve, and changes in Tm (known as ΔTm) are correlated with changes in protein stability and ligand binding. […] For the TSA assay, vehicle (DMSO) or compound was dispensed into MicroAmp Endura optical qPCR plates at the desired volume using an Echo acoustic liquid handler. […] The plates were then centrifuged for 10 s at 1000 rpm and sealed with Clear PCR-compatible plate seals.

IRAP [3] = biological target: T1, IRAP; assay: Deselection fluorescence IRAP assay with 10 µM zinc; format: biochemical; conditions: 10 µM ZnSO4 in assay buffer; for IC50: read-out: Fluorescence + Zn pIC50 (converted)
Experimental: To prepare the assay buffer (50 mM Tris-HCl pH 7.4, 150 mM NaCl, 0.1 mM PMSF, 0.05% BSA) of the primary and orthogonal assays, 1 M Tris-HCl was prepared by dissolving 60.57 g Trizma-base (Mw 121.14 g/mol) (Sigma 93362-250G) in 500 mL MQ water, and the pH was adjusted to 7.4 using 4 M HCl. The solution was filtered with a 0.45 μm filter and stored at room temperature (RT). Then, 2 M NaCl stock was prepared by dissolving 29.22 g NaCl (Mw 58.44 g/mol) (Sigma S7653-250G) in 250 mL MQ water. The solution was filtered with a 0.45 μm filter and stored at RT. Next, 100 mM Phenylmethanesulfonylfluoride (PMSF) stock was prepared by dissolving 1 g PMSF (Mw 174.19 g/mol) (Sigma 78830-1G) in 57.4 mL isopropanol (Sigma I9516-500ML) and stored at 4 °C. A 10% Bovine Serum Albumin (BSA) stock solution was prepared by dissolving 2 g BSA (Mw 66.5 kDa) (Sigma A7030-50G), which was dissolved in 20 mL MQ water. The solution was filtered with a 0.45 μm filter, aliquoted, and stored at −20 °C. For the deselection assay buffer (50 mM Tris-HCl pH 7.4, 150 mM NaCl, 0.1 mM PMSF, 0.05% BSA, 10 μM ZnSO4), 1 mM ZnSO4 solution was prepared by dissolving 28.8 mg ZnSO4 (Mw 287.56 g/mol) (Sigma Z0251-100G) in 100 mL MQ water. The solution was filtered with a 0.45 μm filter and stored at RT. For the TSA assay buffer (50 mM Tris HCL, 150 mM NaCl, pH 7.4), stocks of 1 M Tris HCL and 2 M NaCl were prepared as described above.

[4] = design: method as in ELF screening history; conditions: ref ELF screening history, cited from earlier work; for Enzyme Active: number of ELF enzyme screens in which the compound was active; for Targets active: number of ELF screens in which the compound was active; for Enzyme Active %: share of ELF enzyme targets screened; for Targets Active %: share of all ELF targets screened
IRAP [5] = biological target: T1, IRAP; assay: Orthogonal absorbance IRAP assay (L-Leucine para-nitroanilide cleavage); format: biochemical; conditions: 1 mM L-Leucine p-Nitroanilide, 120 min RT; for IC50: read-out: Absorbance pIC50 (converted)
Text: The primary biochemical assay was developed to measure the enzymatic activity of IRAP. […] To establish an orthogonal assay, an alternative L-Leucine para-nitroanilide substrate was used, which IRAP turns over to L-Leucine and para-nitroaniline and is measurable by absorbance at 405 nm (Supplementary Figure S2B).
To ensure biochemically sound, optimal, robust, and affordable assay conditions for large-scale screening, several factors need to be considered. These include the final concentration of substrates, based on the determined substrate Km value; the assay kinetics and reaction linearity; achieving a minimal, rate limiting protein concentration; identifying optimal buffer additives and concentrations; the choice of assay plate type; the final assay volume per well; the stability of reagents; the magnitude and variance of the signal; and the potency and rank order of reference compounds. For both primary fluorescence and orthogonal absorbance assays, non-binding 1536-well assay plates were used, and 0.05% BSA was included in the assay buffer to minimize the issues associated with protein sticking to plastics. The substrate Km values were determined in two separate experiments using two different batches of IRAP protein. For this, the IRAP progress curve was monitored every 5 min for 2 h using an Envision multimode plate reader (PerkinElmer, Waltham, MA, USA). […] To evaluate if using substrate concentrations close to the determined Km values results in sufficient dynamic range within the linear range of the enzymatic reaction, Z′ and S/B were calculated for multiple time points up to 2.5 h in the presence and absence of reference compounds in both assays. The primary fluorescence assay reached an optimal Z′-value after 1 h when using 37.5 μM substrate (Supplementary Figure S5). For the absorbance, 2 h was required for the enzyme reaction time; however, using ~0.4 mM substrate was associated with increased assay variation and a poor Z′ (Supplementary Figure S6).
The orthogonal assay was performed in a black non-binding 1536-well plate (Corning 3728) and sealed with universal lids (Corning 3098). First, 20 nL of test compounds (4 mM) or 100% DMSO was dispensed into the 1536-well assay plates using an Echo acoustic liquid handler (Beckman Coulter). Then, 4 μL of protein working solution (5 × 10^−4 mg/mL) was dispensed to the negative control (min effect) and compound wells (final well concentration 2.5 × 10^−4 mg/mL) using the Certus Flex liquid dispenser (Fritz Gyger AG) and 4 μL assay buffer to the positive control wells (max effect) using the FLEXdrop (PerkinElmer). Next, 4 μL of 2 mM substrate working solution was dispensed into all wells using the FLEXdrop (final well concentration 1 mM). The assay plates were then centrifuged at 187.5× g for 30 s, incubated in the dark at RT for 120 min, and finally read on an Envision plate reader (PerkinElmer) (absorbance at 405 nm, 10 flashes per second). During the dose–response curve analysis in the orthogonal assay, 80 nL of compound (range 2.00 × 10^−3 M–2.74 × 10^−6 M) or 100% DMSO was dispensed into the assay plates using an Echo acoustic liquid handler (Beckman Coulter) with final well concentration range of 20 μM–27.4 nM compound and 1% DMSO.

[6] = 37.5 µM L-Leucine-7-amido-4-methylcoumarin, 60 min RT, dose-response 20 µM-27.4 nM

T1 sequence (Q9UIQ6 155-1025 limits assumed): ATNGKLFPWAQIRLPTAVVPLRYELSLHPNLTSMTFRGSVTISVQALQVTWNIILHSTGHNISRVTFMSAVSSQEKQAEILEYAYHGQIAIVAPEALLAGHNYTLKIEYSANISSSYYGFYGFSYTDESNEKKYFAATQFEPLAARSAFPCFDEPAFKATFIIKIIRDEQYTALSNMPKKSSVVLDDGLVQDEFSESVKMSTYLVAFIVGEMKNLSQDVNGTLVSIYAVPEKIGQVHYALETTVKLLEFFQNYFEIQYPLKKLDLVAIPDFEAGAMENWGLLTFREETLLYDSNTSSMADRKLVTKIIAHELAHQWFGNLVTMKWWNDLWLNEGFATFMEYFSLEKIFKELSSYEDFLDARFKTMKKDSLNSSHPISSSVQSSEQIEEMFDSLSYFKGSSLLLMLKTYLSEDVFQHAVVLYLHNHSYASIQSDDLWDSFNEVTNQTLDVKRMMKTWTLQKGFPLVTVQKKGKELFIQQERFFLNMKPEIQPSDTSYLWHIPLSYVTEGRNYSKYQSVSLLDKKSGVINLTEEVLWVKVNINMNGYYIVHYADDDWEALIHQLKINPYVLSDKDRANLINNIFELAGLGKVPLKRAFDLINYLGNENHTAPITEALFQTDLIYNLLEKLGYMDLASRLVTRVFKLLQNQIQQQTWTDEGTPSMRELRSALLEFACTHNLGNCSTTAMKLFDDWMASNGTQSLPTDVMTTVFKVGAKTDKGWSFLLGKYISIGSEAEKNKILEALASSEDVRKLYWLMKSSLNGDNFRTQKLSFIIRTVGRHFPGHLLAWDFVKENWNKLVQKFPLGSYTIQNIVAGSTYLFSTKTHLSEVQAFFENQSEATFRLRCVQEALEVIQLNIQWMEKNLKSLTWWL

SMILES | pIC50 (IRAP [1]; [6]) | LipE (IRAP [1]) | ΔTm at 30 µM (IRAP [2]) [°C] | IC50 (IRAP [3]) [µM] | Enzyme Active [4] | Targets active [4] | Enzyme Active % [4] [%] | Targets Active % [4] [%] | IC50 (IRAP [5]) [µM] | Fluorescence pIC50 (IRAP [1]; [6]) | TSA (∆°C), thermal shift of IRAP (IRAP [2]) [°C] | Fluorescence + Zn pIC50 (IRAP [3]) | Absorbance pIC50 (IRAP [5]) | IC50 (IRAP [1]; 37.5 µM L-Leucine-7-amido-4-methylcoumarin, 60 min RT, dose-response 20 µM-27.4 nM, read-out: Fluorescence pIC50 (converted)) [µM]
CC(C)C(CS(=O)(=O)N1CCC(c2ccc(F)cc2Cl)C1)C(=O)NO (stereo not shown) [QHL6] | 5.90 | 3.57 | 3.55 | 1.23 | 3 | 5 | 3.2 | 3.4 | 5.75 | – | – | – | – | –
O=C(C1CCCCC1)N1CCC[C@@H]1c1cc(-c2cccnc2)on1 [QHL27] | 5.49 | 2.14 | 1.48 | 5.13 | 4 | 5 | 5.0 | 3.4 | 10.7 | – | – | – | – | –
CC(C)[C@@H](CS(=O)(=O)N(C)CC1CCc2ccccc2C1)C(=O)NO (stereo partly shown) [QHL16] | 5.58 | 3.14 | 2.07 | 2.82 | 4 | 4 | 5.1 | 2.8 | 3.8 | – | – | – | – | –
O=c1cc(N2CCCC2)nc2n(Cc3cc(Cl)ccc3Cl)ccn12 [QHL15] | 5.62 | 3.54 | -0.89 | 2.57 | 6 | 10 | 7.1 | 7.1 | > 20 | – | – | – | – | –
Cc1cc2nc(N)n(Cc3ccccc3)c2cc1C [QHL49] | 4.75 | 0.76 | – | – | 4 | 9 | 4.9 | 6.2 | – | 4.75 | 0.44 | 4.74 | 5.65 | –
NC(=O)CCc1ccc2c(c1)nc(N)n2Cc1ccc(-c2ccccc2)cc1 [QHL42] | 5.32 | 1.29 | – | – | 6 | 12 | 7.3 | 8.1 | – | 5.32 | 2.96 | 5.32 | 5.40 | –
O=C(N1CCCC1)C1(CNS(=O)(=O)c2cccc3ccccc23)CC12CCCCC2 (stereo not shown) [QHL37] | 5.36 | 1.74 | – | – | 5 | 7 | 12.2 | 9.3 | – | 5.36 | 0.15 | 5.36 | < 4.70 | –
O=C(NO)C(CS(=O)(=O)N1CCC(c2ccc(F)cc2Cl)C1)C1CCOCC1 (stereo not shown) [QHL2] | – | 4.89 | 3.7 | 0.339 | 4 | 5 | 4.3 | 3.4 | 0.794 | – | – | – | – | 0.355
Fc1ccc(F)c(Cn2ccc3ncccc32)c1Cl [QHL31] | 5.46 | 1.05 | 0 | – | 5 | 8 | 5.3 | 5.3 | – | 5.46 | – | 5.38 | <4.70 | –
CCCNc1nc(N(C)C)nc2cc(OC)c(OC)cc12 [QHL32] | 5.46 | 3.10 | 0.15 | 6.17 | 1 | 2 | 2.4 | 2.6 | > 20 | – | – | – | – | –
NCC[C@H]1CCCCN1C(=O)Cn1nc(-c2ccc(Cl)nc2)c2c1CCCC2 [QHL38] | 5.33 | 3.06 | 2.22 | 4.57 | 5 | 9 | 6.3 | 6.5 | 11 | – | – | – | – | –
Cc1cc(NC(=O)Cn2cnc3sc4c(c3c2=O)CCCC4)n(-c2ccccc2)n1 [QHL17] | 5.58 | 2.19 | 0.3 | 3.24 | 4 | 5 | 4.2 | 3.3 | > 20 | – | – | – | – | –
